Values of other authors, collected in patent US8278291B1, “Treatment of wrinkles and strias with 4-hydroxyandrostenedione or a derivative thereof” (Curadis GmbH, priority 1999, dated 2012).

What was measured:
sebaceous gland = conditions: topical, male fuzzy rat, Ye 1997
aromatase = target: T1, aromatase (Homo sapiens, UniProt P11511); conditions: described in the literature
T1 sequence (P11511 1-503): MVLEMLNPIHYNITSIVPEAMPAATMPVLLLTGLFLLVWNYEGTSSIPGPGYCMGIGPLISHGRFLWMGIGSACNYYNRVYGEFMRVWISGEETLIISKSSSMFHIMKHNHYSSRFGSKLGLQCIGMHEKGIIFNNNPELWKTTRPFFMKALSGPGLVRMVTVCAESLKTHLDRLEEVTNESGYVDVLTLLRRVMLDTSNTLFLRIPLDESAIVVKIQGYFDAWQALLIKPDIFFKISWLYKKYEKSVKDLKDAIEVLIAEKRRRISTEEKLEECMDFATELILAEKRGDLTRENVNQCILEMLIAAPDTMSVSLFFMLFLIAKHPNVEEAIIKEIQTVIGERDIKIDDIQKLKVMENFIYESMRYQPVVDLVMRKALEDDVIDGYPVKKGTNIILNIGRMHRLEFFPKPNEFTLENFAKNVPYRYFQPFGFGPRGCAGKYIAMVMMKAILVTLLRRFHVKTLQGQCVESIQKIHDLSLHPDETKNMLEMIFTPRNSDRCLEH

5-alpha-reductase = conditions: described in the literature, higher concentrations
[1] = applied to the head of monkeys over 27 weeks, versus untreated individuals, Rittmaster 1987

Question: Which results are given for `CC(C)(C)NC(=O)[C@H]1CC[C@H]2[C@@H]3CC[C@H]4NC(=O)C=C[C@]4(C)[C@H]3CC[C@]12C` [Finasterid, N-tert-butyl-3-oxo-4-aza-5α-androst-1-ene-17-β-carboxamide]?
Answer: effect in the sebaceous gland model compared with MK 386 (sebaceous gland): little more effective than MK 386; effect in the sebaceous gland model compared with RU58841 (sebaceous gland): much lower effects

Question: With `CC(C)CCC[C@@H](C)[C@H]1CC[C@H]2[C@@H]3[C@@H](C)C[C@H]4N(C)C(=O)CC[C@]4(C)[C@H]3CC[C@]12C` [MK 386, 4,7-beta-dimethyl-4-azacholestane-3-one] as the molecule, how does the “effect in the sebaceous gland model compared with RU58841” value (sebaceous gland) read?
Answer: much lower effects

Question: With `C[C@]12CCC(=O)C(O)=C1CC[C@@H]1[C@@H]2CC[C@]2(C)C(=O)CC[C@@H]12` [4-hydroxyandrostendione, 4-hydroxyandrost-4-ene-3,17-dione] as the molecule, how does the “critical concentration for aromatase” value (aromatase) read?
Answer: about 3 nano mole/L

Question: And the “concentration that can also inhibit 5-alpha-reductase” value (5-alpha-reductase)?
Answer: 3 micro mole/L

Question: For `CCN(CC)C(=O)[C@H]1CC[C@H]2[C@@H]3CC[C@H]4N(C)C(=O)CC[C@]4(C)[C@H]3CC[C@]12C` [Example 4-MA, 17-beta-N,N-diethylcarbamoyl-4-methyl-4-aza-5-alpha-androstan-3-one], which signs of boldness [1] is on record?
Answer: did not have any signs of a boldness
